# Measurements: patent publication US11807644B2 (PMV Pharmaceuticals, Inc., priority 2020, dated 2023)
# Molecular target: T1, recombinant His-tag Y220C p53 DBD protein (Homo sapiens, UniProt P04637, Y220C)
# T1 construct: recombinant His-tag Y220C p53 DBD protein (amino acids #˜94-312)
# Assay: In vitro DNA binding activity assay (TR-FRET): binding of His-tag Y220C p53 DBD to biotin-labeled consensus DNA
# Assay type: biochemical
# Conditions: SC150 = concentration to increase DNA binding by […], His-tag Y220C p53 DBD, biotin-labeled consensus DNA
row,SMILES,Y220C SC150 (μM)
1,"COC(C)Cn1ccc(C(=O)NCc2nc(-c3cc4c(N[C@@H]5CCN(C)C[C@@H]5F)cccc4n3CC(F)(F)F)no2)c1 (stereo partly drawn) [Compound 253B, N-{[3-(4-{[(3S,4R)-3-fluoro-1-methylpiperidin-4-yl]amino}-1-(2,2,2-trifluoroethyl)-1H-indol-2-yl)-1,2,4-oxadiazol-5-yl]methyl}-1-(2-methoxypropyl)-1H-pyrrole-3-carboxamide]",* (* = 0 μM ≤ SC150 < 0.1 μM)
2,"CN1CC[C@@H](Nc2cccc3c2cc(-c2nc(CNC(=O)C4CC4)no2)n3CC(F)(F)F)[C@@H](F)C1 (racemic) [Compound 275B, (+/−)-N-{[5-(4-{[(3R,4S)-3-fluoro-1-methylpiperidin-4-yl]amino}-1-(2,2,2-trifluoroethyl)-1H-indol-2-yl)-1,2,4-oxadiazol-3-yl]methyl}cyclopropanecarboxamide]",* (* = 0 μM ≤ SC150 < 0.1 μM)
3,"CN(C)C[C@@H]1C[C@H]1C(=O)NCc1nc(-c2cc3c(N[C@@H]4CCN(C)C[C@@H]4F)cccc3n2CC(F)(F)F)no1 [Compound 264B, (1R,2R)-2-[(dimethylamino)methyl]-N-{[3-(4-{[(3S,4R)-3-fluoro-1-methylpiperidin-4-yl]amino}-1-(2,2,2-trifluoroethyl)-1H-indol-2-yl)-1,2,4-oxadiazol-5-yl]methyl}cyclopropane-1-carboxamide]",* (* = 0 μM ≤ SC150 < 0.1 μM)
4,"CN1CC[C@@H](Nc2cccc3c2cc(-c2noc(CNC(=O)c4ccc5cc[nH]c5c4)n2)n3CC(F)(F)F)[C@@H](F)C1 [Compound 267B, N-{[3-(4-{[(3S,4R)-3-fluoro-1-methylpiperidin-4-yl]amino}-1-(2,2,2-trifluoroethyl)-1H-indol-2-yl)-1,2,4-oxadiazol-5-yl]methyl}-1H-indole-6-carboxamide]",* (* = 0 μM ≤ SC150 < 0.1 μM)
5,"COCC1(n2ccc(C(=O)NCc3nc(-c4cc5c(N[C@@H]6CCN(C)C[C@@H]6C)cccc5n4CC(F)(F)F)no3)c2)CC1 [Compound 504B, N-{[3-(4-{[(3S,4R)-1,3-dimethylpiperidin-4-yl]amino}-1-(2,2,2-trifluoroethyl)-1H-indol-2-yl)-1,2,4-oxadiazol-5-yl]methyl}-1-[1-(methoxymethyl)cyclopropyl]-1H-pyrrole-3-carboxamide]",* (* = 0 μM ≤ SC150 < 0.1 μM)
6,"CC(C)(C)n1ccc(C(=O)NCc2nc(-c3cc4c(N[C@@H]5CCC(=O)NC5)cccc4n3CC(F)(F)F)no2)c1 [Compound 367B, 1-tert-butyl-N-{[3-(4-{[(3R)-6-oxopiperidin-3-yl]amino}-1-(2,2,2-trifluoroethyl)-1H-indol-2-yl)-1,2,4-oxadiazol-5-yl]methyl}-1H-pyrrole-3-carboxamide]",* (* = 0 μM ≤ SC150 < 0.1 μM)
7,"COC1CCC(n2ccc(C(=O)NCc3nc(-c4cc5c(N[C@@H]6CCN(C)C[C@@H]6F)cccc5n4CC(F)(F)F)no3)c2)C1 (stereo in doubt) [Compound 359B, N-{[3-(4-{[(3S,4R)-3-fluoro-1-methylpiperidin-4-yl]amino}-1-(2,2,2-trifluoroethyl)-1H-indol-2-yl)-1,2,4-oxadiazol-5-yl]methyl)-1-[(1R,3S)-3-methoxycyclopentyl]-1H-pyrrole-3-carboxamide]",* (* = 0 μM ≤ SC150 < 0.1 μM)
8,"CN1CCC(Nc2cccc3c2cc(-c2nnc(CNC(=O)C4(C)CC4)s2)n3CC(F)(F)F)CC1 [Compound 71B, 1-methyl-N-[(5-{4-[(1-methylpiperidin-4-yl)amino]-1-(2,2,2-trifluoroethyl)-1H-indol-2-yl}-1,3,4-thiadiazol-2-yl)methyl]cyclopropane-1-carboxamide]",** (** = 0.1 μM ≤ SC150 < 0.5 μM)
9,"CN1CC[C@@H](Nc2cccc3c2cc(-c2noc(CNC(=O)c4cnn(C5CCC5)c4)n2)n3CC(F)(F)F)[C@@H](F)C1 [Compound 369B, 1-cyclobutyl-N-{[3-(4-{1[(3S,4R)-3-fluoro-1-methylpiperidin-4-yl]amino}-1-(2,2,2-trifluoroethyl)-1H-indol-2-yl)-1,2,4-oxadiazol-5-yl]methyl}-1H-pyrazole-4-carboxamide]",* (* = 0 μM ≤ SC150 < 0.1 μM)
10,"CN1CC[C@@H](Nc2cccc3c2cc(-c2noc(CNC(=O)c4csc(N5CCCC5)n4)n2)n3CC(F)(F)F)[C@@H](F)C1 [Compound 460B, N-{[3-(4-{[(3S,4R)-3-fluoro-1-methylpiperidin-4-yl]amino}-1-(2,2,2-trifluoroethyl)-1H-indol-2-yl)-1,2,4-oxadiazol-5-yl]methyl}-2-(pyrrolidin-1-yl)-1,3-thiazole-4-carboxamide]",* (* = 0 μM ≤ SC150 < 0.1 μM)
11,"CN1CC[C@@H](Nc2cccc3c2cc(-c2noc(CNC(=O)c4ccc(C(C)(C)O)s4)n2)n3CC(F)(F)F)[C@@H](F)C1 [Compound 424B, N-[[3-[4-[[(3S,4R)-3-fluoro-1-methyl-4-piperidyl]amino]-1-(2,2,2-trifluoroethyl)indol-2-yl]-1,2,4-oxadiazol-5-yl]methyl]-5-(1-hydroxy-1-methyl-ethyl)thiophene-2-carboxamide]",* (* = 0 μM ≤ SC150 < 0.1 μM)
12,"CN1CC[C@@H](Nc2cccc3c2cc(-c2noc(CNC(=O)c4cnn(C5COC5)c4)n2)n3CC(F)(F)F)[C@@H](F)C1 [Compound 372B, N-{[3-(4-{[(3S,4R)-3-fluoro-1-methylpiperidin-4-yl]amino}-1-(2,2,2-trifluoroethyl)-1H-indol-2-yl)-1,2,4-oxadiazol-5-yl]methyl}-1-(oxetan-3-yl)-1H-pyrazole-4-carboxamide]",* (* = 0 μM ≤ SC150 < 0.1 μM)
13,"CC(C)(C)N1CC[C@@H](Nc2cccc3c2cc(-c2noc(CNC(=O)c4ccn(C(C)(C)C)c4)n2)n3CC(F)(F)F)[C@H](F)C1 [Compound 394B, 1-tert-butyl-N-{[3-(4-{[(3R,4R)-1-tert-butyl-3-fluoropiperidin-4-yl]amino}-1-(2,2,2-trifluoroethyl)-1H-indol-2-yl)-1,2,4-oxadiazol-5-yl]methyl}-1H-pyrrole-3-carboxamide]",* (* = 0 μM ≤ SC150 < 0.1 μM)
14,"COCC(=O)NCc1nnc(-c2cc3c(NC4CCN(C)CC4)cccc3n2CC(F)(F)F)s1 [Compound 60B, 2-methoxy-N-[(5-{4-[(1-methylpiperidin-4-yl)amino]-1-(2,2,2-trifluoroethyl)-1H-indol-2-yl}-1,3,4-thiadiazol-2-yl)methyl]acetamide]",** (** = 0.1 μM ≤ SC150 < 0.5 μM)
15,"CN1CC[C@@H](Nc2cccc3c2cc(-c2noc(CNC(=O)c4ccn(CCO)c4)n2)n3CC(F)(F)F)[C@@H](F)C1 [Compound 249B, N-{[3-(4-{[(3S,4R)-3-fluoro-1-methylpiperidin-4-yl]amino}-1-(2,2,2-trifluoroethyl)-1H-indol-2-yl)-1,2,4-oxadiazol-5-yl]methyl}-1-(2-hydroxyethyl)-1H-pyrrole-3-carboxamide]",* (* = 0 μM ≤ SC150 < 0.1 μM)
16,"CN1CC[C@@H](Nc2cccc3c2cc(-c2noc(CNC(=O)c4ccn(CC(F)F)c4)n2)n3CC(F)(F)F)[C@@H](F)C1 [Compound 250B, 1-(2,2-difluoroethyl)-N-{[3-(4-{[(3S,4R)-3-fluoro-1-methylpiperidin-4-yl]amino}-1-(2,2,2-trifluoroethyl)-1H-indol-2-yl)-1,2,4-oxadiazol-5-yl]methyl}-1H-pyrrole-3-carboxamide]",* (* = 0 μM ≤ SC150 < 0.1 μM)
17,"CN1CC[C@@H](Nc2cccc3c2cc(-c2noc(CNC(=O)c4cccn4CCF)n2)n3CC(F)(F)F)[C@@H](F)C1 [Compound 540B, N-{[3-(4-{[(3S,4R)-3-fluoro-1-methylpiperidin-4-yl]amino}-1-(2,2,2-trifluoroethyl)-1H-indol-2-yl)-1,2,4-oxadiazol-5-yl]methyl}-1-(2-fluoroethyl)-1H-pyrrole-2-carboxamide]",* (* = 0 μM ≤ SC150 < 0.1 μM)
18,"COc1cc(S(C)(=O)=O)ccc1NCc1cnc(-c2cc3c(N[C@@H]4CCN(C)C[C@@H]4F)cccc3n2CC(F)(F)F)s1 [Compound 99B, N-[(3S,4R)-3-fluoro-1-methylpiperidin-4-yl]-2-(5-{[(4-methanesulfonyl-2-methoxyphenyl)amino]methyl}-1,3-thiazol-2-yl)-1-(2,2,2-trifluoroethyl)-1H-indol-4-amine]",* (* = 0 μM ≤ SC150 < 0.1 μM)
19,"C[C@@H]1C[C@H]1C(=O)NCc1nnc(-c2cc3c(NC4CCN(C)CC4)cccc3n2CC(F)(F)F)s1 (racemic) [Compound 34B, (+/−)-(1R,2R)-2-methyl-N-[(5-{4-[(1-methylpiperidin-4-yl)amino]-1-(2,2,2-trifluoroethyl)-1H-indol-2-yl}-1,3,4-thiadiazol-2-yl)methyl]cyclopropane-1-carboxamide]",* (* = 0 μM ≤ SC150 < 0.1 μM)
20,"CN1CC[C@@H](Nc2cccc3c2cc(-c2noc(CNC(=O)c4cn(-c5ccccc5)cn4)n2)n3CC(F)(F)F)[C@@H](F)C1 [Compound 197B, N-{[3-(4-{[(3S,4R)-3-fluoro-1-methylpiperidin-4-yl]amino}-1-(2,2,2-trifluoroethyl)-1H-indol-2-yl)-1,2,4-oxadiazol-5-yl]methyl}-1-phenyl-1H-imidazole-4-carboxamide]",* (* = 0 μM ≤ SC150 < 0.1 μM)
21,"COCC1(n2ccc(C(=O)NCc3nc(-c4cc5c(N[C@@H]6CCNC[C@@H]6F)cccc5n4CC(F)(F)F)no3)c2)CC1 [Compound 475B, N-{[3-(4-{[(3S,4R)-3-fluoropiperidin-4-yl]amino}-1-(2,2,2-trifluoroethyl)-1H-indol-2-yl)-1,2,4-oxadiazol-5-yl]methyl}-1-[1-(methoxymethyl)cyclopropyl]-1H-pyrrole-3-carboxamide]",* (* = 0 μM ≤ SC150 < 0.1 μM)

# Same assay, conditions: concentration to increase DNA binding by […], incubated at either 27° C. or 29° C. for 60 min
row,SMILES,SC150 (μM)
1,"O=S1(=O)CCC(Nc2cccc3c2cc(-c2ccc(Cl)cc2)n3CC(F)(F)F)CC1 [Compound 14A, 4-{[2-(4-chlorophenyl)-1-(2,2,2-trifluoroethyl)-1H-indol-4-yl]amino}-1λ^6-thiane-1,1-dione]",++++ (++++ = 10 μM ≤ SC150 < 35 μM)
2,"CN(C)c1cccc(-c2cc3c(NC4CCS(=O)(=O)CC4)cccc3n2CC(F)(F)F)c1 [Compound 21A, 4-({2-[3-(dimethylamino)phenyl]-1-(2,2,2-trifluoroethyl)-1H-indol-4-yl}amino)-1λ^6-thiane-1,1-dione]",++ (++ = 2 μM ≤ SC150 < 5 μM)
